“Also recorded” adds a separate entry of the source. Read-outs that look alike come from different tables or passages of the source.
Legend:
[1] = biological target: T1, purified, full length human ERα (Homo sapiens, UniProt P03372); assay: Relative binding affinity (RBA) radiometric competitive binding assay, ERα; conditions: relative binding affinity, E2 (estradiol) is 100%; tritiated estradiol tracer
T1 construct: purified, full length human ERα and ERβ
T1 sequence (P03372 1-595): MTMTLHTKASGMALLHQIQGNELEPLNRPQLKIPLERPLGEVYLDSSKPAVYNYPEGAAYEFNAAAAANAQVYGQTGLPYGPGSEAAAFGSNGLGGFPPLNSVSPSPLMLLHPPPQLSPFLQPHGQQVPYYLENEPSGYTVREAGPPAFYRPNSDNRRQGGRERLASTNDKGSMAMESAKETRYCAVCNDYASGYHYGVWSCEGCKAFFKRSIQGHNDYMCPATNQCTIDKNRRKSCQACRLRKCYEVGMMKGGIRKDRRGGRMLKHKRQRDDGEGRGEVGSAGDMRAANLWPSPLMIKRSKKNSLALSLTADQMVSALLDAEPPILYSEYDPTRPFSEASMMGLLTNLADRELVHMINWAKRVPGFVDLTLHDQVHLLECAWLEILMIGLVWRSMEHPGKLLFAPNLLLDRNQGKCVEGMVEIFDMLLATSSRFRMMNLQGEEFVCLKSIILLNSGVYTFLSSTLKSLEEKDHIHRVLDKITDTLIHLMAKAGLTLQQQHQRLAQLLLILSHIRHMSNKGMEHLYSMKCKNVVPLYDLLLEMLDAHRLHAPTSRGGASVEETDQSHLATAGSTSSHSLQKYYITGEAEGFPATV

[2] = biological target: T2, purified, full length human ERβ (Homo sapiens, UniProt Q92731); assay: Relative binding affinity (RBA) radiometric competitive binding assay, ERβ; conditions: for β/α (ERβ/ERα selectivity): ratio of RBA ERβ to RBA ERα
T2 construct: purified, full length human ERα and ERβ

[3] = tested on: Primary OPCs; assay: Primary OPC culture: MBP+ OL differentiation and total cell count (DAPI); assay type: cell-based, mouse; conditions: for MBP expression / number of MBP+ OLs, compared to vehicle-treated cells: 1 nM; for number of MBP+ OLs with increased percentage of branched OLs, compared to vehicle-treated cells: 10 nM
Description: Primary OPC Cultures: Primary OPCs, isolated from postnatal day P1 C57BL/6 male and female mouse cortices as described previously, are treated with 10 nM ligands in differentiating medium for […] (Tiwari-Woodruff et al., 2001; Tiwari-Woodruff et al., 2006). Primary OPC are cultured into 8-well chamber slides (three wells per condition, 2.5×10^5 cells/well) for three days to attach and five days in differentiating media (consisting of DMEM-F12 with triiodothyronine- and thyroxine-containing Sato as well as penicillin, streptomycin, insulin, N-acetyl-L-cysteine, forskolin, ciliary neurotrophic factor, neurotrophin-3, and platelet-derived growth factor […] (Tiwari-Woodruff et al., 2001)). A positive control (IndC1), a negative control (Vehicle consisting of the media+EtOH mixture used to dissolve IndCl), and a normal control (differentiating media alone) are used for comparison. At the end of the treatment period, cells are fixed, stained by immunocytochemistry (primary antibody polyclonal chicken myelin basic protein (MBP, Millipore AB9348), and co-stained with nuclear stain-DAPI), and imaged with an Olympus BX61 confocal microscope (Olympus America Inc., Center Valley, PA) at 10× magnification (3 images per well). Cells are counted using the ImageJ multipoint tool, and counts are then divided by the image area (mm^2). Average cell density for each condition is then divided by the normal condition cell density. Analysis of OL differentiation consists of counting the number of MBP+ cells and process extensions that are longer than the respective cell-body diameter and tracking the number of highly branched MBP+ cells (with three or more processes) (Monnerie et al., 2017). Statistics are performed using GraphPad Prism 6 Software (La Jolla, CA). One-way ANOVA with Tukey's posthoc test for multiple comparisons is used to generate p-values, and data are presented as mean±SEM (with α≤0.05).
FIG. 1A-1D show the effects of treatment with the 7-substituted indazole compounds on the expression of myelin basic protein in OLs (MBP^+-OLs, top two panels) as an indication of murine oligodendrocyte precursor cell (OPC) differentiation, as well as the count of the total cells as an indication of cell proliferation/survival (DAPI nucleus stain, bottom two panels). The cells were treated with the listed compounds at 10 nM (FIG. 1A, 1B) and at 1 nM (FIG. 1C, 1D).

[4] = 2-hour single-point pharmacokinetic (PK) study, blood and brain; assay type: in vivo, C57BL/6 female mice; conditions: for Kp at 2 h: female, C57BL/6, mouse, brain / blood
Description: The 2-Hour single-point pharmacokinetics for IndCl-7-Cl (compound 7), IndCl-7-Br-3′-OH (compound 12), and IndCl-7-Cl-3′-F (compound 14) was examined in (two and half month old C57BL/6 female) mice after single subcutaneous (SC) injection or oral gavage (PO) in 0.1 mL at a dose 5 mg/kg for SC and 25 mg/kg for PO administration. The vehicle for SC administration was 0.1 mL 10% ethanol and 90% Miglyol 812N or 10% DMSO saline and for PO administration, 0.1 mL 2-hydroxypropyl-beta-cyclodextrin [HPCD]/40% aqueous solution MW ~1540. Two hours after injection blood and brain were collected and processed for quantification of the administered compound at the University of Illinois Metabolomics Core Facility by liquid chromatography-mass spectrometry (LC-MS/MS). The bar graphs indicate the analyzed concentration in the blood and the brain in nM units for each sample and each administered method. The brain uptake ratio over the blood of compound 7 (IndCl-7-C1) in the PO and SC pharmacokinetic study is as high as ~7 and ~6, respectively.
For subcutaneous (SC) injection, the compound made up as a homogeneous suspension in 10% ethanol and 90% Miglyol 812N (vehicle; Sasol) and a 0.1 mL dose was administered by SC injection at a dose of 5 mg/kg body weight. For PO administration, the compound was dissolved into 40% (2-Hydroxypropyl)-β-cyclodextrin (Mw~ 1540)(HP-CD) and administered via oral gavage in a volume of 0.1 mL at a dose of 25 mg/kg body weight.

[5] = tested on: Cuprizone-Induced Demyelinated Mouse Model; assay: Myelin recovery in the cuprizone-induced demyelinated mouse model (MOG IHC, Corpus Callosum); assay type: in vivo, C57BL/6 female mice
Description: The Cuprizone assay of demyelination-remyelination was conducted by the methods described previously (Moore et al. 2013; Crawford et al, 2009a,b). A group of animals was on normal diet (N groups). The remainder of the mice were divided into groups of 5 and all of these groups of mice were fed cuprizone diet at (0.2% cuprizone mixed in chow). After 6 weeks on cuprizone diet-induced demyelination, a group of 5 mice were perfused (DM group). The other groups of mice were switched to normal diet for 1.5 weeks to initiate remyelination and were treated with either (i) Vehicle (SC+V) or (ii) test compound at a dose of 5 mg/kg. […] After 1.5 weeks of normal diet-induced remyelination, the mice were perfused. Brains were collected, cryoprotected, embedded, cut, and IHC for myelin oligodendrocyte glycoproteins (MOG) was performed. Cuprizone study results after 1.5-weeks treatment with the designated 7-substituted compounds via SC administration following 6 weeks cuprizone treatment of (C57BL/6) female mice are shown in FIG. 5. The height of each bar graph represents level of myelination assessed by the expression of MOG in the white matter tracks of the Corpus Callosum area quantified by immunohistochemical analysis (IHC) after staining with a MOG antibody. N: Normal diet, DM: Demyelinated status after 6 weeks cuprizone treatment, SC-Veh: Spontaneous remyelination after injection with matrix in saline solution only (without compound; recovery is only about 40%). (Mice: ~2 months age, SC: Subcutaneous injection, n=5). Cuprizone study results for the 3-weeks treatment with the 6-substituted compound 17 via SC administration following the 6 weeks of 0.2% cuprizone treatment of C57BL/6 female mice are shown in FIG. 6. The height of each bar graph represents level of myelination assessed by the expression of MOG in the white matter tracks of the Corpus Callosum area quantified by immunohistochemical analysis (IHC) after staining with a MOG antibody. N: Normal diet, DM: Demyelinated status after 6 weeks cuprizone treatment, SC-Veh: Spontaneous remyelination after injection with matrix in saline solution only (without compound; recovery is only about 40%). (Mice: ~2 months age, SC: Subcutaneous injection, n=5~6). […] (Mice: ~2 months age, s.c.: Subcutaneous administration, n=5).

[6] = tested on: uterus; assay: Uterotrophic effect (uterine weight) in non-ovariectomized mice of the cuprizone study; assay type: in vivo; conditions: daily SC 5 mg/kg
From the text: The uterus was taken from the mice treated with compounds 5 and 7 from the recovery assessment study using the Cuprizone-induced demyelination model. Uterine weight for each compound is represented by % uterus/body weight.
Estrogens increase uterine weight by acting primarily through ERα (Hewitt and Korach, 2003).

[7] = SC 5 mg/kg, 1.5-weeks treatment after 6 weeks cuprizone

T2 sequence (Q92731 whole entry): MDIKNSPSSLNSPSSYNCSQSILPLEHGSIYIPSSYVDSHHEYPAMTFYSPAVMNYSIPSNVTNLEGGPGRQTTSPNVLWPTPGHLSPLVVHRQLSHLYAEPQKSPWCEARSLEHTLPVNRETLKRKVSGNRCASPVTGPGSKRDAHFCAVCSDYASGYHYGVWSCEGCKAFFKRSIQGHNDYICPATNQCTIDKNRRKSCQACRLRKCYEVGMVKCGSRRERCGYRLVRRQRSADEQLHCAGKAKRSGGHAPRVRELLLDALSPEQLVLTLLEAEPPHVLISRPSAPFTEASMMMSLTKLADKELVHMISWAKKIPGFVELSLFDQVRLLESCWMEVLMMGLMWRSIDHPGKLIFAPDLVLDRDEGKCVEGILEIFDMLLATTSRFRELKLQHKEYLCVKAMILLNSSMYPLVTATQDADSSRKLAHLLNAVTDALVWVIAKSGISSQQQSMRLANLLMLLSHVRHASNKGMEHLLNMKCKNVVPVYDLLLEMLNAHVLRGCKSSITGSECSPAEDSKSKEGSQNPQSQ

| RBA ERα [1] [%] | β/α (ERβ/ERα selectivity) [2] | concentration in the brain after PO administration compared with SC injection ([4]; PO 25 mg/kg vs SC 5 mg/kg, 2 hours) | brain uptake (in words) ([4]; PO 25 mg/kg, 2 hours) | brain uptake (in words) ([4]; SC 5 mg/kg, 2 hours) | Kp at 2 h ([4]; PO 25 mg/kg, 2 hours after dosing, read-out: brain uptake ratio over the blood) | Kp at 2 h ([4]; SC 5 mg/kg, 2 hours after dosing, read-out: brain uptake ratio over the blood) | RBA ERβ ([2]; relative binding affinity, E2 (estradiol) is 100%, tritiated estradiol tracer) [%] | Kp at 2 h ([4]; PO 25 mg/kg, 2 hours, n=3, read-out: concentration in brain relative to concentration in blood) | Compound | MBP expression / number of MBP+ OLs, compared to vehicle-treated cells [3] | number of MBP+ OLs with increased percentage of branched OLs, compared to vehicle-treated cells [3] | remyelination (MOG expression in Corpus Callosum) [5, 7] | uterotrophic effect, uterine weight (% uterus/body weight) vs vehicle [6] | remyelination (MOG expression in Corpus Callosum) ([5]; SC, 3-weeks treatment after 6 weeks of 0.2% cuprizone) |
| --- | --- | --- | --- | --- | --- | --- | --- | --- | --- | --- | --- | --- | --- | --- |
| 6.9 ± 2.4 | 45 | markedly higher | selective high brain uptake | selective high brain uptake | ~7 | ~6 | – | – | Oc1ccc(-n2nc3c(Cl)cc(O)cc3c2Cl)cc1 [Compound 7, 3,7-dichloro-2-(4-hydroxyphenyl)-2H-indazol-5-ol] | particularly significant increase | significant increase | accelerates remyelination, reaching levels at or above the normal myelin level | did not show uterotrophic effects significantly different from mice treated with vehicle alone; also recorded: did not stimulate the uterus weight significantly | – |
| 0.968 | 48.7 | – | – | – | – | – | 47.11 | 3 | Oc1ccc(-n2nc3cc(F)c(O)cc3c2Cl)cc1 [Compound 17, 3-chloro-6-fluoro-2-(4-hydroxyphenyl)-2H-indazol-5-ol] | good MBP expression; also recorded: significant increase | significant increase | – | – | recover above the normal level; also recorded: accelerate remyelination to reach a level at or above the normal level |
| 6.95 | 23 | – | – | – | – | – | – | – | Oc1ccc(-n2nc3c(Br)cc(O)cc3c2I)cc1 [Compound 5, 7-bromo-2-(4-hydroxyphenyl)-3-iodo-2H-indazol-5-ol] | – | significant increase | somewhat less remyelination | did not show uterotrophic effects significantly different from mice treated with vehicle alone; also recorded: did not stimulate the uterus weight significantly | – |

Reference: patent US20260224532A1, “ESTROGEN RECEPTOR BETA LIGANDS FOR THE PREVENTION AND TREATMENT OF MULTIPLE SCLEROSIS (MS) AND OTHER DEMYELINATING, INFLAMMATORY AND NEURODEGENERATIVE DISEASES” (The Board of Trustees of the University of Illinois, priority 2023, published 2026)
